Results published in patent publication US12390486B2, “Method for treating diastolic heart failure by inhibiting galectin-3” (Henry Ford Health System, priority 2012, dated 2025).
Where “and” joins values, the source holds several entries; their conditions need not be identical. Identical values can stand only once.

System: dogs with microembolization-induced HF
Assay: LacNAc in dogs with microembolization-induced HF (Example 2)
Type: in vivo, dog
Conditions: for VFIF (LV Volume fraction of interstitial fibrosis) / ODD (Oxygen diffusion distance) / VFRF (LV volume fraction of replacement fibrosis) / MCSA (myocyte cross-sectional area) / Cap/mm^2 (Capillary density) / Cardiac Output / PE/PA / Ei/Ai / Stroke Volume / Left Ventricular Fractional Area of Shortening / Left Ventricular Ejection Fraction / Left Ventricular End-Systolic Volume / Left Ventricular End-Diastolic Volume / Diastolic Aortic Pressure / Mean Aortic Pressure / Heart Rate / Systolic Aortic Pressure / DT / Systemic Vascular Resistance: individual dogs and Mean (n=3); for VFIF (LV Volume fraction of interstitial fibrosis): historical controls mean 12.95; for ODD (Oxygen diffusion distance): historical controls mean 13.10; for VFRF (LV volume fraction of replacement fibrosis): historical controls mean 13.8; for MCSA (myocyte cross-sectional area): historical controls mean 575; for Cap/mm^2 (Capillary density): historical controls mean 2063; for Cardiac Output / PE/PA / Ei/Ai / Stroke Volume / Left Ventricular Fractional Area of Shortening / Left Ventricular Ejection Fraction / Left Ventricular End-Systolic Volume / Left Ventricular End-Diastolic Volume / Diastolic Aortic Pressure / Mean Aortic Pressure / Heart Rate / Systolic Aortic Pressure / DT / Systemic Vascular Resistance: 115 mg LacNAc oral daily, 12 weeks; for Cardiac Output: PRE mean 1.41; for PE/PA: PRE mean 1.80; for Ei/Ai: PRE mean 2.98; for Stroke Volume: PRE mean 17; for Left Ventricular Fractional Area of Shortening: PRE mean 28.3; for Left Ventricular Ejection Fraction: PRE mean 30; for Left Ventricular End-Systolic Volume: PRE mean 39; for Left Ventricular End-Diastolic Volume: PRE mean 56; for Diastolic Aortic Pressure: PRE mean 62; for Mean Aortic Pressure: PRE mean 73; for Heart Rate: PRE mean 84; for Systolic Aortic Pressure: PRE mean 87; for DT: PRE mean 131; for Systemic Vascular Resistance: PRE mean 4209
Description: In this dog model of HF, the development of the disease is associated with an increase in the volume fraction of interstitial fibrosis in the left ventricular wall from a normal level of 3.5% (connective tissue) to as high as 25%. Dogs were treated for 3 months with daily oral administration of 115 mg of LacNAc. […] This finding is similar to that observed with MCP (Example 1), as illustrated in FIG. 2. […] All of these findings support a marked improvement of LV function and cellular remodeling sought for treatment of HFpEF.

[1] = 115 mg LacNAc oral daily for 3 months, 3 dogs
[2] = 115 mg LacNAc oral daily for 3 months
[3] = 115 mg LacNAc oral daily for 3 months, mean

SMILES: CC(=O)N[C@H]1C(O)O[C@H](CO)[C@@H](O[C@@H]2O[C@H](CO)[C@H](O)[C@H](O)[C@H]2O)[C@@H]1O (stereo partly drawn) [LacNAc, N-acetyl-D-lactosamine]
- LV ejection fraction [1]: improved LV ejection fraction
- LV relaxation (Ei/Ai, PE/PA and DT) [1]: improved LV relaxation
- capillary density [1]: increased capillary density
- myocyte hypertrophy [1]: decreased myocyte hypertrophy
- oxygen diffusion [1]: increased oxygen diffusion
- stroke volume and cardiac output [1]: increased stroke volume and cardiac output
- reduction of reactive interstitial fibrosis (115 mg LacNAc oral daily for 3 months, 3 dogs, compared to historical untreated controls matched for LV ejection fraction, gender, duration of heart failure): ~57%
- VFIF (LV Volume fraction of interstitial fibrosis) [2]: 5.27% (2×) and 6.07%
- VFIF (LV Volume fraction of interstitial fibrosis) [3]: 5.54%
- ODD (Oxygen diffusion distance) [2]: 9.18 μm and 9.48 μm and 9.11 μm
- ODD (Oxygen diffusion distance) [3]: 9.26 μm
- VFRF (LV volume fraction of replacement fibrosis) [2]: 10.4% and 13.6% and 13.8%
- VFRF (LV volume fraction of replacement fibrosis) [3]: 12.6%
- MCSA (myocyte cross-sectional area) [2]: 373 μm^2 and 393 μm^2 and 418 μm^2
- MCSA (myocyte cross-sectional area) [3]: 395 μm^2
- Cap/mm^2 (Capillary density) [2]: 2989 Cap/mm^2 and 2977 Cap/mm^2 and 3042 Cap/mm^2
- Cap/mm^2 (Capillary density) [3]: 3002 Cap/mm^2
- Cardiac Output: 2.02 L/min and 1.80 L/min and 1.67 L/min
- Cardiac Output (mean): 1.83 L/min
- PE/PA: 1.82 and 2.52 and 1.84
- PE/PA (mean): 2.06
- Ei/Ai: 4.26 and 4.43 and 3.25
- Ei/Ai (mean): 3.98
- Stroke Volume: 24 mL and 20 mL and 19 mL
- Stroke Volume (mean): 21 mL
- Left Ventricular Fractional Area of Shortening: 31% and 41% and 29%
- Left Ventricular Fractional Area of Shortening (mean): 33.7%
- Left Ventricular Ejection Fraction: 42% and 38% and 31%
- Left Ventricular Ejection Fraction (mean): 37%
- Left Ventricular End-Systolic Volume: 33 ml (2×) and 43 ml
- Left Ventricular End-Systolic Volume (mean): 36 mL
- Left Ventricular End-Diastolic Volume: 57 mL and 53 mL and 62 mL
- Left Ventricular End-Diastolic Volume (mean): 57 mL
- Diastolic Aortic Pressure: 60 mmHg and 67 mmHg and 62 mmHg
- Diastolic Aortic Pressure (mean): 63 mmHg
- Mean Aortic Pressure: 72 mmHg and 76 mmHg and 73 mmHg
- Mean Aortic Pressure (mean): 74 mmHg
- Heart Rate: 84 beats/min and 90 beats/min and 88 beats/min
- Heart Rate (mean): 87 beats/min
- Systolic Aortic Pressure: 88 mmHg (2×) and 90 mmHg
- Systolic Aortic Pressure (mean): 89 mmHg
- DT: 162 msec (2×) and 115 msec
- DT (mean): 146 ms
- Systemic Vascular Resistance: 2857 dynes-sec-cm^-5 and 3378 dynes-sec-cm^-5 and 3493 dynes-sec-cm^-5
- Systemic Vascular Resistance (mean): 3243 dynes-sec-cm^-5
